Literature values in patent publication US20240060990A1, “SPATIAL SIGNALING NETWORKS FOR MULTIPLEXED DRUG RESPONSE MEASUREMENT AND MODELING” (Georgia Tech Research Corporation, priority 2022, published 2024).

System: PC-9 cell cultures
Settings: PC-9 cells, combined with Osimertinib; cited from earlier work

| Compound | cell apoptosis |
| --- | --- |
| CC(C)Nc1cc(-c2c[nH]c(C(=O)N[C@H](CO)c3cccc(Cl)c3)c2)c(Cl)cn1 [VRT, VRT752271] | enhanced |
| C=CC(=O)N1CCC(C)(Nc2cccc(C(F)(F)F)c2)C1 (centres unmarked) [YAP/TEAD inhibitor, MYF-01-37] | enhanced |
